Relative viability data for seven cell lines are collected here from the supplement of paper PMC10307832.

Holding throughout (assay): relative viability (nuclei count vs DMSO), 5 days (fraction); higher = more cells survive
Compound in the assay “BX 795 + Decitabine”: O=C(NCCCNc1nc(Nc2cccc(NC(=O)N3CCCC3)c2)ncc1I)c1cccs1 [BX 795] + Nc1ncn([C@H]2C[C@H](O)[C@@H](CO)O2)c(=O)n1 [Decitabine] (partner 2 µM)
The procedure, abridged: (§1)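 Lung cancer cell lines in 1536-well plates got either a single drug or a fixed anchor-drug dose together with five library-drug doses (not always all listed) in √10 steps, by pin tool, on the day after seeding. Nuclei were counted after 5 days, and relative viability is the treated-to-vehicle ratio of nuclei counts. Values are medians of duplicate plates.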

Compound in the assay “BX 795 + Navitoclax”: O=C(NCCCNc1nc(Nc2cccc(NC(=O)N3CCCC3)c2)ncc1I)c1cccs1 [BX 795] + CC1(C)CCC(c2ccc(Cl)cc2)=C(CN2CCN(c3ccc(C(=O)NS(=O)(=O)c4ccc(N[C@H](CCN5CCOCC5)CSc5ccccc5)c(S(=O)(=O)C(F)(F)F)c4)cc3)CC2)C1 [Navitoclax] (partner 0.5 µM)
Summed up: as §1

Compound in the assay “BX 795 + Linsitinib”: O=C(NCCCNc1nc(Nc2cccc(NC(=O)N3CCCC3)c2)ncc1I)c1cccs1 [BX 795] + C[C@]1(O)C[C@@H](c2nc(-c3ccc4ccc(-c5ccccc5)nc4c3)c3c(N)nccn32)C1 [Linsitinib] (partner 1 µM)
The procedure, abridged: as §1

Compound in the assay “BX 795 + Lapatinib”: O=C(NCCCNc1nc(Nc2cccc(NC(=O)N3CCCC3)c2)ncc1I)c1cccs1 [BX 795] + CS(=O)(=O)CCNCc1ccc(-c2ccc3ncnc(Nc4ccc(OCc5cccc(F)c5)c(Cl)c4)c3c2)o1 [Lapatinib] (partner 2 µM)
Summed up: as §1

Compound in the assay “BX 795 + Vorinostat”: O=C(NCCCNc1nc(Nc2cccc(NC(=O)N3CCCC3)c2)ncc1I)c1cccs1 [BX 795] + O=C(CCCCCCC(=O)Nc1ccccc1)NO [Vorinostat] (partner 1 µM)
The procedure, abridged:
as §1

For the cell line BEN, the relative viability with BX 795 + Decitabine (first compound 0.04 µM) was 0.886; with BX 795 + Decitabine (first compound 0.1265 µM), 0.709; with BX 795 + Decitabine (first compound 0.4 µM), 0.673; with BX 795 + Decitabine (first compound 1.265 µM) it was 0.672; in the assay with BX 795 + Navitoclax (first compound 0.04 µM), 0.0771; in the assay with BX 795 + Navitoclax (first compound 0.1265 µM) it was 0.0586. Also, the relative viability was determined as 0.0606 with BX 795 + Navitoclax (first compound 0.4 µM); 0.0858 with BX 795 + Navitoclax (first compound 1.265 µM); 0.996 with BX 795 + Linsitinib (first compound 0.04 µM); 0.944 with BX 795 + Linsitinib (first compound 0.1265 µM); 0.842 in the assay with BX 795 + Linsitinib (first compound 0.4 µM); 0.864 in the assay with BX 795 + Linsitinib (first compound 1.265 µM). Moreover, the relative viability with BX 795 + Lapatinib (first compound 0.04 µM) is 0.663; with BX 795 + Lapatinib (first compound 0.1265 µM) it was 0.841; with BX 795 + Lapatinib (first compound 0.4 µM), 0.607; with BX 795 + Lapatinib (first compound 1.265 µM), 0.672; with BX 795 + Vorinostat (first compound 0.04 µM) it was 0.591; with BX 795 + Vorinostat (first compound 0.1265 µM), 0.559. Besides, the results for the relative viability with BX 795 + Vorinostat (first compound 0.4 µM) and with BX 795 + Vorinostat (first compound 1.265 µM) were 0.582 and 0.526, respectively.
Turning to NCI-H23, the relative viability is 0.298 with BX 795 + Decitabine (first compound 0.04 µM); 0.234 with BX 795 + Decitabine (first compound 0.1265 µM); 0.346 in the assay with BX 795 + Decitabine (first compound 0.4 µM); 0.315 with BX 795 + Decitabine (first compound 1.265 µM); 0.983 with BX 795 + Navitoclax (first compound 0.04 µM); 0.916 in the assay with BX 795 + Navitoclax (first compound 0.1265 µM). The relative viability stood at 0.672 with BX 795 + Navitoclax (first compound 0.4 µM); 0.355 in the assay with BX 795 + Navitoclax (first compound 1.265 µM); 0.584 with BX 795 + Linsitinib (first compound 0.04 µM); 0.655 with BX 795 + Linsitinib (first compound 0.1265 µM); 0.441 with BX 795 + Linsitinib (first compound 0.4 µM); 0.387 with BX 795 + Linsitinib (first compound 1.265 µM). Besides, the relative viability is 1.24 with BX 795 + Lapatinib (first compound 0.04 µM); 1.26 with BX 795 + Lapatinib (first compound 0.1265 µM); 0.812 in the assay with BX 795 + Lapatinib (first compound 0.4 µM); 0.884 in the assay with BX 795 + Lapatinib (first compound 1.265 µM); 0.583 with BX 795 + Vorinostat (first compound 0.04 µM); 0.651 in the assay with BX 795 + Vorinostat (first compound 0.1265 µM). The relative viability with BX 795 + Vorinostat (first compound 0.4 µM) turned out to be 0.376; with BX 795 + Vorinostat (first compound 1.265 µM), 0.285.
Regarding EKVX, the relative viability with BX 795 + Decitabine (first compound 0.04 µM) is 0.356; in the assay with BX 795 + Decitabine (first compound 0.1265 µM) it was 0.336; in the assay with BX 795 + Decitabine (first compound 0.4 µM), 0.382; with BX 795 + Decitabine (first compound 1.265 µM) it was 0.377; in the assay with BX 795 + Navitoclax (first compound 0.04 µM), 0.703; with BX 795 + Navitoclax (first compound 0.1265 µM) it was 1.02. Further, the relative viability with BX 795 + Navitoclax (first compound 0.4 µM) is 0.851; with BX 795 + Navitoclax (first compound 1.265 µM), 0.896; with BX 795 + Linsitinib (first compound 0.04 µM), 1.1; in the assay with BX 795 + Linsitinib (first compound 0.1265 µM), 1.21; in the assay with BX 795 + Linsitinib (first compound 0.4 µM) it was 0.833; with BX 795 + Linsitinib (first compound 1.265 µM) it was 0.839. Further, the relative viability in the assay with BX 795 + Lapatinib (first compound 0.04 µM) is 0.248; in the assay with BX 795 + Lapatinib (first compound 0.1265 µM), 0.367; in the assay with BX 795 + Lapatinib (first compound 0.4 µM) it was 0.243; with BX 795 + Lapatinib (first compound 1.265 µM), 0.208; in the assay with BX 795 + Vorinostat (first compound 0.04 µM) it was 0.865; in the assay with BX 795 + Vorinostat (first compound 0.1265 µM) it was 0.696. In addition, the relative viability came out at 0.738 with BX 795 + Vorinostat (first compound 0.4 µM) and 0.537 with BX 795 + Vorinostat (first compound 1.265 µM).
In the case of 201T, the relative viability in the assay with BX 795 + Decitabine (first compound 0.04 µM) was found to be 0.886; with BX 795 + Decitabine (first compound 0.1265 µM) it was 0.871; with BX 795 + Decitabine (first compound 0.4 µM), 1; with BX 795 + Decitabine (first compound 1.265 µM), 0.867; in the assay with BX 795 + Navitoclax (first compound 0.04 µM) it was 1.18; with BX 795 + Navitoclax (first compound 0.1265 µM), 1.21. Also, the relative viability came out at 1.24 with BX 795 + Navitoclax (first compound 0.4 µM); 1.21 in the assay with BX 795 + Navitoclax (first compound 1.265 µM); 1.06 in the assay with BX 795 + Linsitinib (first compound 0.04 µM); 1.08 with BX 795 + Linsitinib (first compound 0.1265 µM); 1.04 with BX 795 + Linsitinib (first compound 0.4 µM); 1.03 with BX 795 + Linsitinib (first compound 1.265 µM). Further, the relative viability in the assay with BX 795 + Lapatinib (first compound 0.04 µM) was 1.1; with BX 795 + Lapatinib (first compound 0.1265 µM), 1.04; in the assay with BX 795 + Lapatinib (first compound 0.4 µM) it was 1.12; in the assay with BX 795 + Lapatinib (first compound 1.265 µM), 1.01; in the assay with BX 795 + Vorinostat (first compound 0.04 µM) it was 1.06; with BX 795 + Vorinostat (first compound 0.1265 µM), 0.991. The relative viability with BX 795 + Vorinostat (first compound 0.4 µM) is 1.23; with BX 795 + Vorinostat (first compound 1.265 µM), 1.12.
NCI-H1993: the relative viability with BX 795 + Decitabine (first compound 0.04 µM) stood at 0.65; with BX 795 + Decitabine (first compound 0.1265 µM), 0.602; with BX 795 + Decitabine (first compound 0.4 µM), 0.719; with BX 795 + Decitabine (first compound 1.265 µM) it was 0.652; with BX 795 + Navitoclax (first compound 0.04 µM), 0.868; in the assay with BX 795 + Navitoclax (first compound 0.1265 µM) it was 0.857. Besides, the relative viability with BX 795 + Navitoclax (first compound 0.4 µM) is 0.846; with BX 795 + Navitoclax (first compound 1.265 µM), 0.614; with BX 795 + Linsitinib (first compound 0.04 µM), 0.628; in the assay with BX 795 + Linsitinib (first compound 0.1265 µM), 0.732; with BX 795 + Linsitinib (first compound 0.4 µM), 0.713; with BX 795 + Linsitinib (first compound 1.265 µM) it was 0.696. The relative viability with BX 795 + Lapatinib (first compound 0.04 µM) was 0.848; with BX 795 + Lapatinib (first compound 0.1265 µM), 0.786; with BX 795 + Lapatinib (first compound 0.4 µM), 0.79; with BX 795 + Lapatinib (first compound 1.265 µM) it was 0.658; with BX 795 + Vorinostat (first compound 0.04 µM), 0.833; with BX 795 + Vorinostat (first compound 0.1265 µM), 0.731. The relative viability with BX 795 + Vorinostat (first compound 0.4 µM) is 0.577; with BX 795 + Vorinostat (first compound 1.265 µM) it was 0.524.
NCI-H596: the relative viability came to 1.05 with BX 795 + Decitabine (first compound 0.04 µM); 0.982 with BX 795 + Decitabine (first compound 0.1265 µM); 1.1 in the assay with BX 795 + Decitabine (first compound 0.4 µM); 1.08 in the assay with BX 795 + Decitabine (first compound 1.265 µM); 1.04 with BX 795 + Navitoclax (first compound 0.04 µM); 1.05 with BX 795 + Navitoclax (first compound 0.1265 µM). Also, the relative viability worked out at 1.16 with BX 795 + Navitoclax (first compound 0.4 µM); 0.945 with BX 795 + Navitoclax (first compound 1.265 µM); 1.09 with BX 795 + Linsitinib (first compound 0.04 µM); 1.25 with BX 795 + Linsitinib (first compound 0.1265 µM); 1.16 with BX 795 + Linsitinib (first compound 0.4 µM); 1.03 with BX 795 + Linsitinib (first compound 1.265 µM). For the same cell line, the relative viability with BX 795 + Lapatinib (first compound 0.04 µM) turned out to be 1.01; in the assay with BX 795 + Lapatinib (first compound 0.1265 µM) it was 1.11; with BX 795 + Lapatinib (first compound 0.4 µM) it was 1.11; with BX 795 + Lapatinib (first compound 1.265 µM), 1.15; with BX 795 + Vorinostat (first compound 0.04 µM), 0.669; in the assay with BX 795 + Vorinostat (first compound 0.1265 µM), 0.585. Besides, the relative viability is 0.623 with BX 795 + Vorinostat (first compound 0.4 µM) and 0.594 with BX 795 + Vorinostat (first compound 1.265 µM).
Take NCI-H2347: the relative viability in the assay with BX 795 + Decitabine (first compound 0.04 µM) was determined as 0.65; with BX 795 + Decitabine (first compound 0.1265 µM), 0.653; in the assay with BX 795 + Decitabine (first compound 0.4 µM), 0.69; in the assay with BX 795 + Decitabine (first compound 1.265 µM), 0.636; with BX 795 + Navitoclax (first compound 0.04 µM), 1.02; with BX 795 + Navitoclax (first compound 0.1265 µM), 0.743. Also, the relative viability in the assay with BX 795 + Navitoclax (first compound 0.4 µM) was 1.05; with BX 795 + Navitoclax (first compound 1.265 µM), 0.76; with BX 795 + Linsitinib (first compound 0.04 µM), 1.09; with BX 795 + Linsitinib (first compound 0.1265 µM), 0.962; with BX 795 + Linsitinib (first compound 0.4 µM), 1.17; with BX 795 + Linsitinib (first compound 1.265 µM), 0.942. Moreover, the relative viability amounted to 0.945 with BX 795 + Lapatinib (first compound 0.04 µM); 0.903 with BX 795 + Lapatinib (first compound 0.1265 µM); 1.16 with BX 795 + Lapatinib (first compound 0.4 µM); 0.914 with BX 795 + Lapatinib (first compound 1.265 µM); 0.5 in the assay with BX 795 + Vorinostat (first compound 0.04 µM); 0.633 in the assay with BX 795 + Vorinostat (first compound 0.1265 µM). Moreover, the relative viability came out at 0.717 with BX 795 + Vorinostat (first compound 0.4 µM) and 0.505 in the assay with BX 795 + Vorinostat (first compound 1.265 µM).
